# According to US10597388B2, “Pyridazinone herbicides” (FMC CORPORATION, priority 2014, dated 2020):
# Tests used:
# Test in all cases: Test F mixtures with commercial herbicides, Post- or Pre-emergence
# Assay type in all cases: in vivo
# [1] = test system: AMARE, redroot pigweed (Amaranthus retroflexus); details: scale 0-100
# Description: (§1) This test evaluated the effect of mixtures of Compound 1 or Compound 2 with various commercial herbicides on multiple plant species. Seeds of multiple plant species selected were planted into Sandy Loam soil and treated either Post-emergence or Pre-emergence with test chemicals formulated in a non-phytotoxic solvent mixture. Plants were grown in a greenhouse using supplemental lighting to maintain a photoperiod of approximately 16 h; daytime and nighttime temperatures were approximately 24-30 and 19-21° C., respectively. Balanced fertilizer was applied through the watering system. Treated plants and controls were maintained in a greenhouse for 20 d, after which time all species were compared to controls and visually evaluated. Plant response ratings summarized in Tables F1 through F4 and are based on a scale of 0 to 100 where 0 is no effect and 100 is complete control. A dash (-) response means no test result. Application rates (i.e. “Rate”) are expressed in grams of active ingredient per hectare (g a.i./ha). In the following tables KCHSC is kochia (Kochia scoparia), LOLMU in Italian Ryegrass (Lolium multiflorum), AMBEL is common ragweed (Ambrosia elatior), ECHCG is barnyardgrass (Echinochloa crus-galli), SETVI is giant foxtail (Setaria faberii), AMARE is redroot pigweed (Amaranthus retroflexus), ALOMY is blackgrass (Alopecurus myosuroides) and GALAP is galium (Galium aparine). “Obsd.” is observed effect. “Exp.” is expected effect calculated from Colby's Equation.
# (§2) Colby's Equation was used to determine the herbicidal effects expected from the mixtures. Colby's Equation (Colby, S. R. “Calculating Synergistic and Antagonistic Responses of Herbicide Combinations,” Weeds, 15(1), pp 20-22 (1967)) calculates the expected additive effect of herbicidal mixtures, and for two active ingredients is of the form: Pa+b=Pa+Pb−(PaPb/100)
# (§3) wherein Pa+b is the percentage effect of the mixture expected from additive contribution of the individual components:
# (§4) Pa is the observed percentage effect of the first active ingredient at the same use rate as in the mixture, and
# (§5) Pb is the observed percentage effect of the second active ingredient at the same use rate as in the mixture.
# [2] = test system: KCHSC, kochia (Kochia scoparia); details: scale 0-100
# Description: as §1, §2, §3, §4, §5
# [3] = test system: LOLMU, Italian Ryegrass (Lolium multiflorum); details: scale 0-100
# Description: as §1, §2, §3, §4, §5
# [4] = test system: GALAP, galium (Galium aparine); details: Table F3, Post-emergence, scale 0-100
# Description: as §1, §2, §3, §4, §5
# [5] = test system: AMBEL, common ragweed (Ambrosia elatior); details: scale 0-100
# Description: as §1, §2, §3, §4, §5
# [6] = test system: SETVI, giant foxtail (Setaria faberii); details: scale 0-100
# Description: as §1, §2, §3, §4, §5
# [7] = test system: ALOMY, blackgrass (Alopecurus myosuroides); details: Table F3, Post-emergence, scale 0-100
# Description: as §1, §2, §3, §4, §5
# [8] = test system: ECHCG, barnyardgrass (Echinochloa crus-galli); details: scale 0-100
# Description: as §1, §2, §3, §4, §5
# [9] = Pre-emergence, Rate 16 g a.i./ha
# [10] = Pre-emergence, Rate 62 g a.i./ha
# [11] = Table F3, Post-emergence, Rate 16 g a.i./ha
# [12] = Table F3, Post-emergence, Rate 62 g a.i./ha
smiles,measurement,setting,value
"Cc1cc(C)c2sc(C)c(-c3c(O)c(C)nn(C)c3=O)c2c1 [Compound 2, 5-hydroxy-2,6-dimethyl-4-(2,5,7-trimethylbenzo[b]thien-3-yl)-3(2H)-pyridazinone]",AMARE Obsd.,[1]; [9],25
same,AMARE Obsd.,[1]; [10],75
same,AMARE Obsd.,[1]; [11],25
same,AMARE Obsd.,[1]; [12],80
same,KCHSC Obsd.,[2]; [9],0
same,KCHSC Obsd.,[2]; [10],0
same,KCHSC Obsd.,[2]; [11],50
same,KCHSC Obsd.,[2]; [12],75
same,LOLMU Obsd.,[3]; [9],0
same,LOLMU Obsd.,[3]; [10],50
same,LOLMU Obsd.,[3]; [11],75
same,LOLMU Obsd.,[3]; [12],95
same,GALAP Obsd.,[4]; Rate 16 g a.i./ha,100
same,GALAP Obsd.,[4]; Rate 62 g a.i./ha,100
same,AMBEL Obsd.,[5]; [9],30
same,AMBEL Obsd.,[5]; [10],95
same,AMBEL Obsd.,[5]; [11],40
same,AMBEL Obsd.,[5]; [12],80
same,SETVI Obsd.,[6]; [9],60
same,SETVI Obsd.,[6]; [10],98
same,SETVI Obsd.,[6]; [11],15
same,SETVI Obsd.,[6]; [12],80
same,ALOMY Obsd.,[7]; Rate 16 g a.i./ha,20
same,ALOMY Obsd.,[7]; Rate 62 g a.i./ha,60
same,ECHCG Obsd.,[8]; [9],0
same,ECHCG Obsd.,[8]; [10],25
same,ECHCG Obsd.,[8]; [11],5
same,ECHCG Obsd.,[8]; [12],20
